Several values for one entry are separate records, joined by “and”; a condition that tells them apart may be missing. Identical values can stand only once.
Legend:
Format in all cases: in vivo
[1] = system: model rat of diabetes (streptozotocin); assay: Test 1: neural stimulus conduction rate (sciatic nerve) in STZ diabetes model rat; details: STZ (65 mg/kg i.p.) diabetes rat, 8 mg/kg daily i.p. for 8 weeks, mean ± S.E.
Experimental: (§1) To a rat, 65 mg/kg of streptozotocin (STZ) was administered intraperitoneally to prepare a model rat of diabetes. After intraperitoneal administration of Compound 4 obtained in Preparation Example 4 at a daily dose of 8 mg/kg for 8 weeks from two days after administration of STZ, the conduction rate of stimulus to sciatic nerve was measured by inserting a needle electrode for potential measurement into the vicinity of the right sciatic nerve, right Achilles tendon, and right plantar. Measurement was conducted three times and the mean of them was designated as the nerve stimulus conduction rate of the rat. Each group consisted of 10 to 12 rats.

[2] = system: model rat of diabetes (streptozotocin); assay: Test 3: bladder capacity and urination efficiency by intravesical pressure measurement under anesthesia, STZ diabetes model rat; details: 8 mg/kg daily i.p. for 8 weeks, mean ± S.E.
Experimental: as §1
In a similar manner to Test 1, Compound 4 obtained in Preparation Example 4 was administered intraperitoneally to a rat at a daily dose of 8 mg/kg for 8 weeks from two days after administration of STZ. The intravesical pressure of the rat was then measured under anesthesia, whereby bladder capacity and urination efficiency were determined.
The urination efficiency was determined from an excreted quantity/bladder capacity ratio.
Urination efficiency (%)=100×excreted quantity/bladder capacity

[3] = system: model rat of diabetes (streptozotocin); assay: Test 2: maximum quantity excreted by single urination, metabolic cage, STZ diabetes model rat; details: 8 mg/kg daily i.p. for 8 weeks, recorded for 24 hours in metabolic cage, mean ± S.E.
Experimental: as §1
In a similar manner to Test 1, Compound 4 obtained in Preparation Example 4 was administered intraperitoneally to a rat at a daily dose of 8 mg/kg day for 8 weeks from two days after administration of STZ. Its urination pattern such as urination frequency and urination amount was then recorded for 24 hours at 2.5-min intervals by using a metabolic cage.

CC1=C(CCCCCCCCCCCCCCCO)C(C)(C)CCC1=O [Compound 4, 3-(15-Hydroxypentadecyl)-2,4,4-trimethyl-2-cyclohexen1-one]
Conduction rate of stimulus to nerve [1]: 45.5 m/sec and 45.5 ± 1.2 m/sec | Bladder capacity (urination-inducing) [2]: 0.54 ± 0.07 mL | Urination efficiency (100×excreted quantity/bladder capacity) [2]: 75.0±6.1% | Maximum amount excreted by single urination [3]: 3.71 ± 0.26 mL

Reference: patent US7838565B2, “Use of cyclohexenone derivatives in the manufacture of a medicament for treating diabetic complications” (Meiji Dairies Corporation, priority 2001, dated 2010)
